Measurements: ChEMBL document CHEMBL1158259, “Tonkinecin, a novel bioactive annonaceous acetogenin from Uvaria tonkinesis” (J Nat Prod, 1996)

How the values were obtained:
Assay type in all cases: functional, cell-based
Bel-7402 = assay: Cytotoxicity against human Bel7402 cells after 5 days by MTT assay; settings: Bel-7402, 120 h
[1] = Cytotoxicity against human BGC cells after 5 days by MTT assay; settings: 120 h
HCT-8 = assay: Cytotoxicity against human HCT8 cells after 5 days by MTT assay; settings: HCT-8, 120 h
HL-60 = assay: Cytotoxicity against human HL60 cells after 5 days by MTT assay; settings: HL-60, 120 h

For `CCCCCCCCCCCC[C@@H](O)[C@H]1CC[C@H]([C@H](O)CCCCCCCCCCC[C@H](O)CCC2=C[C@H](C)OC2=O)O1` [TONKINECIN], the IC50 (Bel-7402) was 1.5 µM, the IC50 [1] was 5.1 µM and the IC50 (HCT-8) was 0.38 µM. It also gave an IC50 (HL-60) of 0.52 µM.
For `COc1cc([C@@H]2c3cc4c(cc3[C@@H](O[C@@H]3O[C@@H]5CO[C@@H](C)O[C@H]5[C@H](O)[C@H]3O)[C@H]3COC(=O)[C@H]23)OCO4)cc(OC)c1O` [ETOPOSIDE], the IC50 (Bel-7402) was 1.9 µM, the IC50 [1] was 6.7 µM and the IC50 (HCT-8) was 6.4 µM. For the same compound, the IC50 (HL-60) was 0.16 µM.
